Source: patent US7601750B2, “Small molecule inhibition of a PDZ-domain interaction” (The Regents of the University of California, priority 2003, dated 2009)

Columns and labels:
H1703 = test: Apoptotic effects in cancer cells overexpressing Dvl, H1703; assay type: cell-based, human
Procedure: (§1) Compounds were tested for apoptotic effects to represent the inhibitory effects of compounds on interaction between the PDZ domain of the Dishevelled (Dlv) protein and the Fz protein (Wnt receptor). Cell lines H513 and H1703 were utilized, with test compounds (compound numbers from Tables 1 and 2) being applied at 0 (control), 10 μM and 100 μM.

[1] = tested on: Wnt/beta-Catenin signaling; test: Inhibition of Wnt/beta-Catenin signaling in A549; assay type: cell-based; settings: human lung cancer cell line A549
[2] = tested on: human Dishevelled (Dvl) protein; test: Binding to Dishevelled protein
[3] = tested on: Wnt/beta-Catenin signaling; test: Inhibition of Wnt/beta-Catenin signaling in H1703; assay type: cell-based; settings: human lung cancer cell line H1703
H513 = test: Apoptotic effects in cancer cells overexpressing Dvl, H513; assay type: cell-based, human; settings: for apoptosis, %: H513, 1 day
Procedure: as §1

[4] = tested on: human lung cancer (H1073) cells; test: Growth suppression and apoptosis in lung cancer cells (other tests); assay type: cell-based; settings: 100 μM, after 4 days
[5] = tested on: human melanoma (LOX) cells; test: Growth suppression and apoptosis in melanoma cells (other tests); assay type: cell-based; settings: 100 μM, after 4 days
[6] = tested on: human lung cancer (H460) cells; test: Growth suppression and apoptosis in lung cancer H460 cells (other tests); assay type: cell-based; settings: 100 μM, after 4 days

Compound	apoptosis, % (H1703; 10 μM, H1703, 4 days) [%]	apoptosis, % (H1703; 100 μM, H1703, 4 days) [%]	inhibition of Wnt/beta-Catenin signaling [1]	binding to human Dishevelled (Dvl) protein [2]	apoptosis, % (H1703; 10 μM, H1703, 1 day) [%]	apoptosis, % (H1703; 100 μM, H1703, 1 day) [%]	inhibition of Wnt/beta-Catenin signaling [3]	apoptosis, % (H513; 10 μM) [%]	apoptosis, % (H513; 100 μM) [%]	suppress cancer cell growth and induce apoptosis, % of the population (H513; 100 μM, after 4 days, human mesothelioma (H513) cells)	suppress cancer cell growth and induce apoptosis, % of the population [4]	suppress cancer cell growth and induce apoptosis, % of the population [5] [%]	suppress cancer cell growth and induce apoptosis, % of the population [6]
CCCCC(O)c1cc2cc(C)c(C(=O)O)cc2n1CCc1ccccc1 (stereo not shown) [Compound 1, [2-(1-Hydroxypentyl)-5-methyl-1-(2-phenylethyl)]indole-6-carboxylic acid]	6.2	38.7											
CCCCCc1c(CO)c2cc(C)c(C(=O)[O-])cc2n1CCc1ccccc1.[Na+] [Compound 6, Sodium [3-hydroxymethyl-2-(1-pentyl)-1-(2-phenylethyl)-5-methyl]indole-6-carboxylate]			inhibit	bind	8.2	34.0	inhibit	14.3	52.5	over 50%	up to 85.2%	35	about 20%
